Like-named read-outs stand apart in the source and are kept apart here.
Assays:
[1] = tested on: PAH; conditions: oral; cited from earlier work
[2] = tested on: men with mild-to-severe ED; conditions: cited from earlier work
[3] = tested on: men with ED; conditions: cited from earlier work
[4] = hydrophobicity scale of amino acids; type: physicochemical; conditions: scale on which glycine has the value 0.5
Excerpt: Hydrophobicity is generally defined with respect to the partition of an amino acid between a nonpolar solvent and water. Hydrophobic amino acids are those acids which show a preference for the nonpolar solvent. Relative hydrophobicity of amino acids can be expressed on a hydrophobicity scale on which glycine has the value 0.5. On such a scale, amino acids which have a preference for water have values below 0.5 and those that have a preference for nonpolar solvents have a value above 0.5. As used herein, the term hydrophobic amino acid refers to an amino acid that, on the hydrophobicity scale has a value greater or equal to 0.5, in other words, has a tendency to partition in the […] which is at least equal to that of glycine.
A mixture including 40 weight % of an amino acid and 60 weight % DPPC is formed in a 70/30 vol/vol ethanol-water co-solvent and spray-dried and the geometric aerodynamic diameters for the particles are determined. In addition, the hydrophobicity and tap density may also be determined. Tap density may be determined using the equation provided above.

[5] = tested on: erectile dysfunction (ED); conditions: in vivo; cited from earlier work
[6] = glass stability of derivatized carbohydrates immersed in aqueous medium; type: physicochemical; conditions: THEX: saline medium at 37° C.; lactose derivative: water
[7] = tested on: African Green monkey kidney-derived cell line Vero; assay: toxicity of HDC glasses in vitro; type: cell-based; conditions: week of culture
Protocol: A saturated solution of TOAC in deionized distilled water (0.42 g in 20 mls) is tested for toxicity in vitro using the African Green monkey kidney-derived cell line Vero, in either a 10-fold serial dilution or by adding the TOAC powder directly to the tissue culture medium.

[8] = tested on: pulmonary hypertension; conditions: cited from earlier work
[9] = tested on: patients with severe PAH; conditions: versus placebo; cited from earlier work
[10] = tested on: patients with pulmonary hypertension; conditions: administered by aerosolization; cited from earlier work
[11] = tested on: pulmonary hypertension; conditions: in vivo; cited from earlier work
[12] = dissolution of HDC glass discs in water; type: physicochemical

For `CC#CCC(C)[C@H](O)/C=C/[C@@H]1[C@H]2c3cccc(CCCC(=O)O)c3O[C@H]2C[C@H]1O` (mixture of isomers) [Beraprost], the “benefit in PAH” value [1] is listed as “benefit in a study in PAH at 3 and 6 months but not at 9 or 12 months”.

For `CN1CC(=O)N2[C@H](c3ccc4c(c3)OCO4)c3[nH]c4ccccc4c3C[C@@H]2C1=O` [Cialis, tadalafil], the “most commonly reported treatment-emergent adverse effects” value ([2]; greater than or equal to 5 percent) is given as “headache, back pain, and upset stomach”, the “patients who discontinued the study because of adverse events” value ([2]; in vivo) is given as 5% and the “most commonly reported treatment-emergent adverse effects” value ([3]; 10 mg, increased to 20 mg, at least one year) is given as “headache and upset stomach”. For the same compound, the “discontinuation rate for any individual adverse event” value ([3]; in vivo) was “less than 1%” and the “patients who discontinued the study due to side effects” value ([3]; in vivo) was “Five”.

`N[C@@H](CCC(=O)O)C(=O)O` [Glutamate] showed a hydrophobicity [4] of 0.043.

`CC[C@H](C)[C@H](N)C(=O)O` [Isoleucine] gave a hydrophobicity [4] of 0.943.

In the case of `CCCc1nc(C)c2c(=O)[nH]c(-c3cc(S(=O)(=O)N4CCN(CC)CC4)ccc3OCC)nn12` [Levitra, vardenafil HC1], the “most commonly reported side effects” value [5] is listed as “headache, flushing, and stuffy or runny nose”.

For `N[C@@H](Cc1ccccc1)C(=O)O` [Phenylalanine], the hydrophobicity [4] was 0.501.

In the case of `CC(C)(C)CC(=O)O[C@@H]1[C@@H](OC(=O)CC(C)(C)C)[C@@H](O[C@H]2O[C@H](CO)[C@@H](OC(=O)CC(C)(C)C)[C@H](OC(=O)CC(C)(C)C)[C@H]2OC(=O)CC(C)(C)C)O[C@H](CO)[C@H]1OC(=O)CC(C)(C)C` [THEX, Trehalose hexa-3,3-dimethylbutyrate], the “stability of the glassy state when immersed” value [6] is reported as “stable in the glassy state”.

In the case of `CC(=O)OCC1OC(OC2OC(COC(C)=O)C(OC(C)=O)C(OC(C)=O)C2OC(C)=O)C(OC(C)=O)C(OC(C)=O)C1OC(C)=O` (centres unmarked) [TOAC, trehalose octaacetate], the toxicity in vitro ([7]; saturated solution in water (0.42 g in 20 mls), 10-fold serial dilution or powder added to the medium) is reported as “No toxic effects” and the cell division [7] is reported as “normal”.

For `COc1ccccc1Oc1c(NS(=O)(=O)c2ccc(C(C)(C)C)cc2)nc(-c2ncccn2)nc1OCCO` [bosentan], the liver toxicity ([8]; higher dose) is given as “liver toxicity occurred” and the “six minute walk test” value ([8]; whole group) is given as “improved”.

In the case of `CC#CCC(C)[C@H](O)/C=C/[C@@H]1[C@H]2C/C(=C/CCCC(=O)O)C[C@H]2C[C@H]1O` (some centres unmarked) [iloprost], the exercise capacity [9] is given as “improved exercise capacity”.

With `CC(=O)OC[C@H]1O[C@@H](O[C@H]2[C@H](OC(C)=O)[C@@H](OC(C)=O)C(OC(=O)C(C)C)O[C@@H]2COC(C)=O)[C@H](OC(C)=O)[C@@H](OC(C)=O)[C@H]1OC(C)=O` (some centres unmarked) [lactose isobutyrate heptaacetate] the “stability of the glassy state when immersed” value [6] was “very stable in the glassy state”.

In the case of `CCCCC[C@H](O)/C=C/[C@@H]1[C@H]2C/C(=C/CCCC(=O)O)O[C@H]2C[C@H]1O` [prostacyclin], the duration of effects [10] is listed as 15 min.

For `Cc1cc2c(cc1CC(=O)c1sccc1S(=O)(=O)Nc1onc(C)c1Cl)OCO2` [sitaxsentan], the “decrease in pulmonary vascular resistance” value [11] is given as 30% and the “six minute walk test” value [11] is given as “improvement”.

For `CC(=O)OC[C@H]1O[C@H](OC(C)=O)[C@H](OC(C)=O)[C@@H](OC(C)=O)[C@@H]1OC(C)=O` [α-D-glucose pentaacetate], the “loss of original weight” value ([12]; disc in 1 l of water replaced daily, 7 days) was 20%.

With `CC(=O)OC[C@H]1O[C@@H](OC(C)=O)[C@H](OC(C)=O)[C@@H](OC(C)=O)[C@@H]1OC(C)=O` [β-D-glucose pentaacetate] the “solubility of the glass in water” value [12] was “poorly soluble in water” and the “loss of original weight” value ([12]; disc 20 mm diameter, 2.5 mm thick, flowing water, 10 days) was “about 33%”.

Source: US20060147520A1, “Treatment of pulmonary hypertension by inhaled iloprost with a microparticle formulation” (priority 2004, published 2006)
